Patent US11802110B2, “2-amino-N-(arylsulfinyl)-acetamide compounds as inhibitors of bacterial aminoacyl-tRNA synthetase” (priority 2016, dated 2023)
Converted amounts (≈) assume the structure as drawn.

What was measured:
[1] = system: Pseudomonas aeruginosa ATCC 27853; assay: Study 4 - MIC by broth micro-dilution (CLSI); assay type: cell-based; settings: Pseudomonas aeruginosa, ATCC27853
Protocol: (§1) Minimum Inhibitory Concentrations (MICs) were determined by the broth micro-dilution method performed according to Clinical Laboratory Standards Institute guidelines. For testing, 5 mg/mL DMSO solutions were prepared by dissolving solids in DMSO. Standard antibiotics were prepared according to CLSI guidelines as 5 mg/mL stock solutions. Upon DMSO stock solutions preparation, the working solutions in MH media were prepared by adding 38.4 μL of stock solution to 1461.6 μL of MH media. Out of these working solutions 100 μL were transferred to wells in the third column of 96-well assay plates. Assay plates were previously filled with 50 μL of MH media in all wells except for the wells in the third column. Upon compounds and antibiotics addition, 50 μL was transferred from the third to the fourth column, then from the fourth to the fifth and so on.
(§2) MIC value was determined by visual inspection of bacterial growth within 96-well plates. The first column in which there was no visible growth of bacteria was determined as MIC value for compound or antibiotic tested in that particular row. ATCC strains were used as reference strains for which there is a determined value of MIC values for standard antibiotics. The assay is considered valid when MIC values for standard antibiotics are within CLSI designated range for ATCC strain tested.

[2] = system: Enterobacter cloacae B1966 clinical isolate; assay: Study 4 - MIC by broth micro-dilution (CLSI); assay type: cell-based; settings: Enterobacter cloacae
Protocol: as §1, §2

[3] = system: Haemophilus influenzae ATCC 49247; assay: Study 4 - MIC by broth micro-dilution (CLSI); assay type: cell-based; settings: Haemophilus influenzae, ATCC49247; G = H. influenzae ATCC 49247; read-out: MIC
Protocol: as §1, §2

[4] = system: Escherichia coli ATCC 25922; assay: Study 4 - MIC by broth micro-dilution (CLSI); assay type: cell-based; settings: Escherichia coli, ATCC25922
Protocol: as §1, §2

[5] = system: Klebsiella pneumoniae ATCC 700603; assay: Study 4 - MIC by broth micro-dilution (CLSI); assay type: cell-based; settings: Klebsiella pneumoniae, ATCC700603
Protocol: as §1, §2

[6] = system: Acinetobacter baumannii B1931 clinical isolate; assay: Study 4 - MIC by broth micro-dilution (CLSI); assay type: cell-based; settings: Acinetobacter baumannii
Protocol: as §1, §2

[7] = Human cell viability (cytotoxicity), ATP levels by CellTiter-Glo; assay type: cell-based; settings: HepG2 cells (ATCC HB-8065), 24 hours incubation, read-out: IC50 (μg/mL), Cytotoxicity in HepG2 ATCC HB-8065 Cell Line
Protocol: Compounds were assessed for potential non-specific cytotoxic effects against a human hepatic cell line (HepG2 ATCC HB-8065). 96-well plates were seeded with HepG2 cells in concentration of 15,000 cells per well in 100 μL of MEM growth media completed with 1% NEAA and 1% sodium pyruvate. Border wells were filled with 100 μL of sterile PBS. Two days upon cells incubation, the compounds were added. Compound dilutions were prepared in 96-well V-bottom plate in pure DMSO. Growth media from 5 plates were aspirated and replaced with 98.7 μL of fresh growth media. 1.28 μL of compounds prepared in V-bottom plates were transferred with multichannel pipette into test plates (78.1× dilution). Final DMSO concentration was 1.28% per well. In control wells, 1.28 μL of DMSO was added in 98.7 μL of media. Compounds were tested in duplicates. Cells were incubated with compounds for 24 hours when cell viability was assessed by measuring ATP levels. ATP levels were measured by adding 50 μL of CellTiter-Glo reagent to each well and after 5 minutes of incubation luminescence was measured with SpectraMax i3. The potential effect of tested compounds on cell viability was determined by comparing the signal obtained in presence of different concentrations of the compounds with those obtained in the presence of DMSO only. The potential effects were then calculated and presented as IC50 values (μg/mL).

E. Coli LeuRS = E. Coli LeuRS (Escherichia coli (strain K12), UniProt P07813); assay: Study 2 - Isothermal titration calorimetry (ITC); assay type: binding; settings: 25° C., pH 7.5, mean ± SD
Protocol: Escherichia coli BL21(DE3) cells transformed with plasmid pQE-60 containing the open-reading frame sequence of one targeted aaRS (i.e., LeuRS) were induced with 1 mM IPTG (isopropyl β-D-1-thiogalactopyranoside) for 3 hours at 37° C. Bacterial cells were harvested and lysed with 20 mM HEPES (4-(2-hydroxyethyl)-1-piperazinylethane-sulfonic acid) (pH 7.5), 300 mM NaCl, 15 mM imidazole and 1 mM DTT (1,4-dithio-D-threitol). The pathogenic aaRS was first purified by nickel affinity standard chromatography. The eluted protein was concentrated and then further purified by gel filtration using 50 mM HEPES (pH 7.5), 150 mM NaCl buffer.
ITC studies were carried out using a Microcal ITC200 instrument (GE Healthcare). Protein concentration was determined by spectrophotometry by measuring the absorbance at 280 nm using a theoretical molar extinction coefficient of 169,140 M^−1cm^−1. Ligand stock solutions were prepared in DMSO at 62.5 mM concentration. The titrations were performed at 25° C. with 7.5-100 μM E. Coli LeuRS in 50 mM HEPES, 150 mM NaCl, pH 7.5 buffer containing 1% DMSO (v/v). The protein solution in the 280 μL sample cell was titrated with the inhibitor solution (diluted to 75-3000 μM in the same buffer as the protein) using 1-2 μL injections every 120-140 seconds. All titrations were repeated at least two times. To correct for heats of dilution and mixing, the final baseline consisting of small peaks of identical size at the end of each experiment was subtracted. The experimental data were fitted to a theoretical titration curve (one site model) using MicroCal Origin 7 SR4 software.
Note that Compounds R-4.1 and S-4.1 (in Table 15, below) correspond to Compounds V-i and V-ii (in Tables 13 and 14, above), respectively.

[8] = system: Escherichia coli ATCC 25922 TolC deficient mutant (E. coli EFFLUX del); assay: microbe, parasite or virus in culture; assay type: cell-based; settings: Escherichia coli, ATCC25922
Protocol: as §1, §2

E. Coli LeuRS, sequence (P07813 whole entry): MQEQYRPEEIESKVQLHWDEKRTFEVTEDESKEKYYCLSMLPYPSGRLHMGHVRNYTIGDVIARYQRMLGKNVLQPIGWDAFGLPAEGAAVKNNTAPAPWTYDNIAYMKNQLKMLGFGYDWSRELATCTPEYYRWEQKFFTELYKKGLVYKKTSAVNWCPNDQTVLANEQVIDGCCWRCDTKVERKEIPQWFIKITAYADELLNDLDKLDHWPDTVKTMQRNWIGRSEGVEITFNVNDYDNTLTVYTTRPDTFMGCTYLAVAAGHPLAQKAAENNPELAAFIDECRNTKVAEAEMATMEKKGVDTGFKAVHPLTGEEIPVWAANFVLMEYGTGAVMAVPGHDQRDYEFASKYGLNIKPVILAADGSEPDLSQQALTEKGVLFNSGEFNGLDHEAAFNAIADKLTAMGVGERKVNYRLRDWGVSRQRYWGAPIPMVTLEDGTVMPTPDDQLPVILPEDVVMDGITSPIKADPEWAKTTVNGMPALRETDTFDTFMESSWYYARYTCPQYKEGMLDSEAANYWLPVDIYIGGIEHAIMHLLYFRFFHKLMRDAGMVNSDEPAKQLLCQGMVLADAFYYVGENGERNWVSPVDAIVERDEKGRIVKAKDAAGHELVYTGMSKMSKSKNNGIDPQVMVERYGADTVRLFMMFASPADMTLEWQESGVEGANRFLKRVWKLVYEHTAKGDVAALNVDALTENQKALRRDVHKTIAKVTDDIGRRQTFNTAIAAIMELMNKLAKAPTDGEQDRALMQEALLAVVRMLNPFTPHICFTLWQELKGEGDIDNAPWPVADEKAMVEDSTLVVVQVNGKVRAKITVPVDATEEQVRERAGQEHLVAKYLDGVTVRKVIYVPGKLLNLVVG

| SMILES | MIC [1] | MIC [2] | MIC [3] | MIC [4] | MIC [5] | MIC [6] | IC50 at 24 h [7] | Kd (E. Coli LeuRS) | ΔG (E. Coli LeuRS) | ΔH (E. Coli LeuRS) | MIC [8] |
| --- | --- | --- | --- | --- | --- | --- | --- | --- | --- | --- | --- |
| CC(C)C[C@H](N)C(=O)N[S@@+]([O-])c1ccccc1 (single isomer, unassigned) [S-4.1] | > 64 µg/mL | > 64 µg/mL | > 64 µg/mL | 64 µg/mL (≈ 252 µM) | > 64 µg/mL | > 64 µg/mL | > 64 µg/mL | 9130 ± 2720 nM | -6.89 ± 0.16 kcal/mol | -2.33 ± 0.13 kcal/mol | 64 µg/mL (≈ 252 µM) |
| CC(C)CC(N)C(=O)N[S+]([O-])c1ccccc1Cl (stereo not shown) [4.32] | > 64 µg/mL | 16 µg/mL (≈ 55.4 µM) | 32 µg/mL (≈ 111 µM) | 4 µg/mL (≈ 13.9 µM) | 16 µg/mL (≈ 55.4 µM) | 16 µg/mL (≈ 55.4 µM) | > 64 µg/mL | 4.61 ± 0.06 nM | -11.37 ± 0.01 kcal/mol | -10.62 ± 0.25 kcal/mol | 8 µg/mL (≈ 27.7 µM) |
| CC(C)CC(N)C(=O)N[S+]([O-])c1cccc(F)c1F (stereo not shown) [4.34] | 32 µg/mL (≈ 110 µM) | 1 µg/mL (≈ 3.44 µM) | 4 µg/mL (≈ 13.8 µM) | 0.5 µg/mL (≈ 1.72 µM) | 1 µg/mL (≈ 3.44 µM) | 2 µg/mL (≈ 6.89 µM) | > 64 µg/mL | 288 ± 42.9 nM | -8.93 ± 0.08 kcal/mol | -9.90 ± 0.40 kcal/mol | 0.25 µg/mL (≈ 0.861 µM) |
| C#Cc1cccc([S+]([O-])NC(=O)C(N)CC(C)C)c1 (stereo not shown) [4.27] | > 64 µg/mL | 8 µg/mL (≈ 28.7 µM) | 16 µg/mL (≈ 57.5 µM) | 4 µg/mL (≈ 14.4 µM) | 32 µg/mL (≈ 115 µM) | > 64 µg/mL | > 64 µg/mL | 3.69 ± 0.05 nM | -11.50 ± 0.00 kcal/mol | -8.71 ± 1.08 kcal/mol | 2 µg/mL (≈ 7.18 µM) |
| CC(C)CC(N)C(=O)N[S+]([O-])c1cccc(OC(F)(F)F)c1 (stereo not shown) [4.20] | > 64 µg/mL | > 64 µg/mL | 64 µg/mL (≈ 189 µM) | 8 µg/mL (≈ 23.6 µM) | > 64 µg/mL | > 64 µg/mL | > 64 µg/mL | 1.39 ± 0.07 nM | -12.08 ± 0.03 kcal/mol | -11.64 ± 0.45 kcal/mol | 8 µg/mL (≈ 23.6 µM) |
| CC(C)CC(N)C(=O)N[S+]([O-])c1cc(F)cc(F)c1 (stereo not shown) [4.35] | > 64 µg/mL | 64 µg/mL (≈ 220 µM) | > 64 µg/mL | 16 µg/mL (≈ 55.1 µM) | > 64 µg/mL | > 64 µg/mL | > 64 µg/mL | 16.4 ± 2.72 nM | -10.63 ± 0.10 kcal/mol | -9.97 ± 0.10 kcal/mol | 16 µg/mL (≈ 55.1 µM) |
| CC(C)CC(N)C(=O)N[S+]([O-])c1cc(Cl)cc(Cl)c1 (stereo not shown) [4.36] | > 64 µg/mL | > 64 µg/mL | > 64 µg/mL | 64 µg/mL (≈ 198 µM) | > 64 µg/mL | > 64 µg/mL | 44 µg/mL (≈ 136 µM) | – | – | – | 64 µg/mL (≈ 198 µM) |
| CC(C)C[C@H](N)C(=O)N[S@+]([O-])c1cccc(Cl)c1 [R-4.12] | > 64 µg/mL | 8 µg/mL (≈ 27.7 µM) | 8 µg/mL (≈ 27.7 µM) | 2 µg/mL (≈ 6.93 µM) | 32 µg/mL (≈ 111 µM) | 32 µg/mL (≈ 111 µM) | > 64 µg/mL | 1.48 ± 0.08 nM | -11.96 ± 0.12 kcal/mol | -10.75 ± 1.06 kcal/mol | 2 µg/mL (≈ 6.93 µM) |
